Measurements reported in patent US5837698A, “Steroid nitrite and nitrate ester derivatives useful as anti-inflammatory drugs” (G. D. Searle & Co., priority 1996, dated 1998).
Values belong to the compound of their own block, whether it stands above or below them.

Columns and labels:
[1] = tested on: rat aortic ring smooth muscle; assay: In vitro smooth muscle relaxant activity assay (rat aortic ring) in the presence of Cys and L-NAME; type: cell-based; conditions: for EC50: rat aortic rings precontracted with phenylephrine (0.3 uM), in the presence of cysteine and L-NAME, read-out: Relaxation, EC50
Procedure: The rat aortic ring assay was utilized as a bioassay to measure the relaxant activity. The rings were precontracted with phenylephrine (0.3 uM) and subsequently compounds were added to the tissue bath in the presence of cysteine (Cys) and N^G -L-nitroarginine methyl ester (L-NAME): A.In vitro smooth muscle relaxant activity assay in the presence of Cys and L-NAME: […]

[2] = tested on: prostaglandin E2 (PGE2) synthesis in Human fetal fibroblast cells; assay: In vitro inhibition of prostaglandin E2 (PGE2) synthesis assay; type: cell-based; conditions: IL-1 for 16 hours, compound 10 uM given with IL-1, ELISA, Basal 0.6, IL-1 alone 9.4
Procedure: B. In vitro inhibiton of prostaglandin E2 (PGE2) synthesis assay: Human fetal fibroblast cells were treated with IL-1 for 16 hours and prostaglandin E2 was measured by an ELISA. Compounds were given at the time of addition of IL-1. This assay provides an in vitro assessment of the compound to block the induction of the proinflammatory agent prostaglandin E2 (PGE2): […]

- EC50 [1]: 100 µM
Structure (SMILES): CCC(=O)OCC(=O)[C@@]1(OC(=O)CC)[C@@H](C)C[C@H]2[C@@H]3CCC4=CC(=O)C=C[C@]4(C)[C@@]3(Cl)[C@@H](O)C[C@@]21C [Beclomethasone-dipropionate, reference compound]
- smooth muscle relaxant activity (in words) ([1]; rat aortic ring, precontracted with phenylephrine, Cys and L-NAME): did not show any effect

Structure (SMILES): C[C@@H]1C[C@H]2[C@@H]3CCC4=CC(=O)C=C[C@]4(C)[C@@]3(F)[C@@H](O)C[C@]2(C)[C@@]1(O)C(=O)CO [Dexamethasone, reference compound]
- PGE2 [2]: 0.6 ng

Structure (SMILES): CCC(=O)OCC(=O)[C@@]1(OC(=O)CC)[C@@H](C)C[C@H]2[C@@H]3CCC4=CC(=O)C=C[C@]4(C)[C@@]3(Cl)[C@@H](OC(=O)CCC(=O)O[C@H]3CO[C@H]4[C@@H]3OC[C@H]4O[N+](=O)[O-])C[C@@]21C [Example 1]
- EC50 [1]: > 10 µM
- PGE2 [2]: 0.5 ng

Structure (SMILES): C[C@]12C=CC(=O)C=C1CC[C@@H]1[C@@H]2[C@@H](O)C[C@@]2(C)[C@H]1CC[C@]2(O)C(=O)COC(=O)CCC(=O)O[C@H]1CO[C@H]2[C@@H]1OC[C@H]2O[N+](=O)[O-] [Example 21]
- EC50 [1]: 3 µM
- PGE2 [2]: 0.4 ng
